Key:
[1] = DPPH antioxidant assay; type: physicochemical; conditions: compound at 50 µM
Description: The 2,2-diphenyl-1-picrylhydrazyl (DPPH) assay was used to determine the antioxidant properties of selected compounds using ascorbic acid, trolox, and quercetin as references. […] From a structural point of view, 21 and 22 share a common pyrimido[2,1-f]purinedione core with propyl or butyl substituents at the N1- and N3-position. Compounds 11i and 11l, containing hexyl or phenoxyethyl as N7-substituents, were the only structures in the groups of bicyclic xanthine derivatives that lacked antioxidant activity in the DPPH assay.
Antioxidant properties of considered structures were evaluated in DPPH test. The assay utilizes a stable free radical 2,2-diphenyl-1-picrylhydrazyl (DPPH). DPPH has a deep violet color in solution and strong absorption band at 520 nm. The antioxidant activity of the tested compounds was defined by their ability to induce the formation of the reduced form of DPPH. Upon reduction, DPPH color turned pale yellow, which manifested by decreased sample absorption at 520 nm and was measured in conducted experiments using EnSpire microplate reader (PerkinElmer). Antioxidant activity of xanthine derivatives and reference compounds was tested in triplicate at 50 µM concentration and normalized to the activity of reference radical scavenger—quercetin.
Figure 2 Antioxidant properties of xanthine derivatives evaluated in the DPPH test. All compounds were tested at 50 µM concentration. Results were normalized to the antioxidant activity measured for quercetin. ASC, ascorbic acid; TLX, trolox; QCT, quercetin.

SMILES | melting point [°C] | Antioxidative Activity [% of Quercetin Response at 50 µM ± SD] [1]
CC(C)Cn1c(NCCc2ccc(O)c(O)c2)nc2c1c(=O)n(C)c(=O)n2C (hydrate or solvate) [Compound 11f, 8-((3,4-Dihydroxyphenethyl)amino)-7-isobutyl-1,3-dimethyl-3,7-dihydro-1H-purine-2,6-dione] | 201 to 203 | 
Cn1c(=O)c2c(nc(NCCc3ccc(O)c(O)c3)n2Cc2ccccc2)n(C)c1=O (hydrate or solvate) [Compound 11j, 7-Benzyl-8-((3,4-dihydroxyphenethyl)amino)-1,3-dimethyl-3,7-dihydro-1H-purine-2,6-dione] | 214 to 216 | 
Cn1c(=O)c2c(nc(NCCc3ccc(O)c(O)c3)n2CCc2ccccc2)n(C)c1=O (hydrate or solvate) [Compound 11k, 8-((3,4-Dihydroxyphenethyl)amino)-1,3-dimethyl-7-phenethyl-3,7-dihydro-1H-purine-2,6-dione] | 180 to 182 | 
O=C1O[C@H]([C@@H](O)CO)C(O)=C1O [Ascorbic acid, reference compound] |  | 78 ± 1 % of Quercetin Response
Cc1c(C)c2c(c(C)c1O)CCC(C)(C(=O)O)O2 (centres unmarked) [Trolox, reference compound] |  | 73 ± 1 % of Quercetin Response
